From paper PMC6411751, “Use of machine learning to identify novel, behaviorally active antagonists of the insect odorant receptor co-receptor (Orco) subunit” (Scientific Reports, 2019)

Columns and labels:
Dmel\Or85b = tested on: Dmel\Or85b; design: method as in ref 1 Münch, D., Galizia, C.G. DoOR 2.0 (2016); details: ref 1 Münch, D., Galizia, C.G. DoOR 2.0 (2016); cited from earlier work
Dmel\Or19a = tested on: Dmel\Or19a; design: method as in ref 1 Münch, D., Galizia, C.G. DoOR 2.0 (2016); details: ref 1 Münch, D., Galizia, C.G. DoOR 2.0 (2016); cited from earlier work
OR expressing neurons = tested on: OR expressing neurons; design: method as in PMID 22272331; details: directly injected into sensilla at ≥100 µM; cited from earlier work
[1] = tested on: Orco subunit of the Hessian fly (Mayetiola destructor); details: cited from earlier work
oocyte = assay: Oocyte toxicity seen during Orco antagonist screening; details: at concentrations higher than 300 µM
Text: Figure 4 (A) Scatter plot of predictions (Bayesian scores) from model A and model B for the 138 highest probability predicted actives. […] (B) Cluster membership of the 138 most likely predicted actives and distribution of experimentally tested compounds. […] (D) Antagonist activity of 39 predicted Orco antagonists, as well as the activity of 16 known Orco antagonists (denoted by a dot (•) preceding the compound name). […] Data are presented as mean ± SEM (n = 3–10).

Agam\Orco = target: T1, Agam\Orco (Anopheles gambiae, UniProt Q7QCC7); assay: cell-based; type: cell-based; details: for IC50: Table S1, training actives, Agam\Orco activated by 30 µM OLC12, mean ± SEM (n = 3-8), read-out: IC50
T1 construct: expressed in transfected cells; host or cells: Xenopus laevis oocytes injected with capped cRNA (plasmid pT7TS, gift of L. Zwiebel)
T1 sequence (Q7QCC7 1-478): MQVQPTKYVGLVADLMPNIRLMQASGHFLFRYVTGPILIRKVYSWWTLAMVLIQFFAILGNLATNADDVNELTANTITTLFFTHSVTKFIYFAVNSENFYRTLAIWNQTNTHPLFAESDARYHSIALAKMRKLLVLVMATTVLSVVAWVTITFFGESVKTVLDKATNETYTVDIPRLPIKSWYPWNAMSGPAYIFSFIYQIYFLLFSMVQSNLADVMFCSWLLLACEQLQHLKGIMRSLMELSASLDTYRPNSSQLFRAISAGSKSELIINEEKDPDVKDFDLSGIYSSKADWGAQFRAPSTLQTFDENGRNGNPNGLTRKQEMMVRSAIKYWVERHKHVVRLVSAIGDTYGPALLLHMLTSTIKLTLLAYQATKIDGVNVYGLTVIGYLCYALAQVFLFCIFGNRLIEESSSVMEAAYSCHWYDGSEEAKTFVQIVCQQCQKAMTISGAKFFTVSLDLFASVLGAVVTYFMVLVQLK
Experimental: A 2 hr incubation with collagenase B (Roche) was used to remove follicle cells from oocytes. Capped cRNA for Agam\Orco was synthesized using mMessage mMachine kits (Thermo Fisher Scientific). 25 ng of cRNA was injected into stage V–VI oocytes, followed by a 2–5 day incubation at 18 °C in Barth’s saline (in mM: 88 NaCl, 1 KCl, 2.4 NaHCO3, 0.3 CaNO3, 0.41 CaCl2, 0.82 MgSO4, 15 HEPES, pH 7.4, and 0.05 g/L tetracycline, 0.05 g/L ciprofloxacin, 0.1 g/L amikacin) prior to electrophysiological recordings.
An automated parallel electrophysiology system (OpusExpress 6000 A, Molecular Devices) was used to record Orco agonist (OLC12) or odorant induced currents under two-electrode voltage clamp. Oocytes were perfused with ND96 (in mM: 96 NaCl, 2 KCl, 1 CaCl2, 1 MgCl2, 5 HEPES, pH 7.4). DMSO was used to prepare 1 M or 100 mM stock solutions of test compounds, which were then diluted in ND96 on the day of the experiment. Compounds were applied at a flow rate of 1.0 mL/min, with extensive washing in ND96 at 4.6 mL/min between applications. Micropipettes with resistances of 0.2–2.0 MΩ were filled with 3 M KCl. The holding potential was −70 mV. Current responses were filtered (4-pole, Bessel, low pass) at 20 Hz (−3 db) and sampled at 100 Hz. OpusXpress 1.1 software (Molecular Devices) was used to capture and store current responses.
To measure antagonist activity at Orco, Agam\Orco was activated by the Orco agonist OLC12[34]. […] The current response to OLC12 in the presence of antagonist candidate was compared to the mean of the preceding two responses to OLC12 alone and presented as a percentage[34],[35]. This value was then normalized to the value obtained when the assay was run in the absence of antagonist candidate (sham).
During development of the training panel (Fig. 2, Tables S1 and S2), all compounds not previously known to be Orco antagonists were tested at a concentration of 3 mM. […] Concentration-inhibition curves were constructed for all compounds eliciting >20 percent inhibition at 3 mM. The same concentration and criteria were used during screening of predicted actives (Fig. 4D) and predicted inactives (Fig. 5C).
Clampfit 9.1 software (Molecular Devices) was used to perform initial analysis of electrophysiological data. Prism 7 (Graphpad) was used for curve fitting. Concentration-inhibition data were fit to the equation: I = Imax/(1 + (X/IC50)^n) where I represents the current response at a given concentration of inhibitor, X; Imax is the maximal response in the absence of inhibitor; IC50 is the concentration of inhibitor present that allows a half maximal response from OLC12; n is the apparent Hill coefficient.

Dmel\Or69a = tested on: Dmel\Or69a; design: method as in ref 1 Münch, D., Galizia, C.G. DoOR 2.0 (2016); details: ref 1 Münch, D., Galizia, C.G. DoOR 2.0 (2016); cited from earlier work
Dmel\Or92a = tested on: Dmel\Or92a; design: method as in ref 1 Münch, D., Galizia, C.G. DoOR 2.0 (2016); details: ref 1 Münch, D., Galizia, C.G. DoOR 2.0 (2016); cited from earlier work
Dmel\Or22a = tested on: Dmel\Or22a; design: method as in ref 1 Münch, D., Galizia, C.G. DoOR 2.0 (2016); details: ref 1 Münch, D., Galizia, C.G. DoOR 2.0 (2016); cited from earlier work
Dmel\Or83c = tested on: Dmel\Or83c; design: method as in ref 1 Münch, D., Galizia, C.G. DoOR 2.0 (2016); details: ref 1 Münch, D., Galizia, C.G. DoOR 2.0 (2016); cited from earlier work
Agam\ORs = tested on: Agam\ORs; design: method as in ref 2-5 (a number printed in a supplementary file, which may have a reference list of its own: not looked up in the article's list); details: cited from earlier work
Dmel\Or67a = tested on: Dmel\Or67a; design: method as in ref 1 Münch, D., Galizia, C.G. DoOR 2.0 (2016); details: ref 1 Münch, D., Galizia, C.G. DoOR 2.0 (2016); cited from earlier work
Dmel\Or13a = tested on: Dmel\Or13a; design: method as in ref 1 Münch, D., Galizia, C.G. DoOR 2.0 (2016); details: ref 1 Münch, D., Galizia, C.G. DoOR 2.0 (2016); cited from earlier work

CC(C)c1ccc(C=O)cc1 [4-isopropylbenzaldehyde]
scaled response from DoOR (max = 1.0) (Dmel\Or85b): 0.222 | scaled response from DoOR (max = 1.0) (Dmel\Or19a): 0.351

CCn1c(SCC(=O)N2c3ccccc3Sc3ccccc32)nnc1-c1ccco1 [VU0183254]
spontaneous firing rate of OR expressing neurons (OR expressing neurons): reduce the spontaneous firing rate

CCc1ccc(NC(=O)CSc2nnc(-c3cccnc3)n2CC)cc1 [VUAA1, N-(4-ethylphenyl)-2-((4-ethyl-5-(3-pyridinyl)-4H-1,2,4-triazol-3-yl)thio)acetamide]
sensitivity of Orco subunit to the agonist [1]: insensitive

Cc1ccc(C(C)C)cc1O [carvacrol]
oocyte toxicity (oocyte): oocyte toxicity at higher concentrations | decrease in potency relative to 3I6MC (Agam\Orco; Agam\Orco IC50 compared with 3I6MC): 3.6 fold | IC50 (Agam\Orco): 146 ± 21 µM

CC(C)=CCC/C(C)=C/C=O [citral]
scaled response from DoOR (max = 1.0) (Dmel\Or69a): 0.483 | IC50 (Agam\Orco): 452 ± 44 µM | scaled response from DoOR (max = 1.0) (Dmel\Or92a): 0.325 | scaled response from DoOR (max = 1.0) (Dmel\Or22a): 0.140

CC(C)=CCC[C@@H](C)CC=O [citronellal]
scaled response from DoOR (max = 1.0) (Dmel\Or83c): 0.092 | activity at Agam\ORs (basal activity) (Agam\ORs; Or5, Or12, Or15, Or25, Or45, Or73): inhibition of basal | activity at Agam\ORs (Agam\ORs; Or30, Or31, Or48, Or50, Or75): activation

CCOC(=O)/C=C/c1ccccc1 [ethyl-trans-cinnamate]
IC50 (Agam\Orco): 134 ± 16 µM | scaled response from DoOR (max = 1.0) (Dmel\Or67a): 0.143

CC(C)=CCCC(C)=CCCC(C)=CC=O [farnesal]
scaled response from DoOR (max = 1.0) (Dmel\Or83c): 0.046

C=CC(C)(O)CCC=C(C)C (centres unmarked) [linalool]
scaled response from DoOR (max = 1.0) (Dmel\Or67a): 0.158 | scaled response from DoOR (max = 1.0) (Dmel\Or13a): 0.164 | scaled response from DoOR (max = 1.0) (Dmel\Or85b): 0.163
